Measurements taken from patent US20010053777A1, “Drug treatment for restless leg syndrome” (priority 1999, published 2001).

Legend:
patients with RLS = test: Treatment of 2 patients with RLS: therapeutic history, monotherapy trials and combination therapy; format: in vivo, human; conditions: for side effects: dose-limiting or intolerable
Experimental: 2 patients with RLS (person and person) were treated with a combination therapy of pramipexole and clonidine.
The clonidine was also initially prescribed in a single dose of 0.075 mg two hours before bedtime and increased by 0.075 mg at intervals of 3 days.
2. Treatment with a combination therapy of clonidine and pramipexole After slowly bringing the clonidine therapy to a complete halt and after a treatment-free period of about 1 week, both patients were treated with a combination of 0.088 mg of pramipexole and 0.075 mg of clonidine. […] After 7 days the dosage of pramipexole had been increased to 0.18 mg and the dosage of clonidine to 0.15 mg, two hours before going to nd sleep.

[1] = system: Restless Leg Syndrome (RLS) patients; conditions: cited from earlier work; for relief from the complaint: a few partly open trials or long-term therapy; for effectiveness in RLS: short-term therapy trials or trials cited in the background
[2] = 0.225 mg (male) / 0.45 mg (female) single dose before bedtime
[3] = 2 RLS patients, previous therapy or monotherapy

For `Cc1nnc2n1-c1sc(Br)cc1C(c1ccccc1Cl)=NC2` [Brotizolam], the “falling asleep and sleeping through” value (patients with RLS; 2 RLS patients, previous therapy) was “improved”.

In the case of `NC(=O)N1c2ccccc2C=Cc2ccccc21` [Carbamazepine], the “relief from the complaint” value [1] is listed as “only partial relief”.

For `N[C@@H](Cc1ccc(O)c(O)c1)C(=O)O` [L-DOPA], the augmentation under therapy (patients with RLS; both RLS patients, previous therapy, disappeared on switch to a dopamine agonist) is listed as “typical augmentation during the day” and the “relief from the complaint” value [1] is listed as “significant alleviation of the complaint”.

For `CC(C)C[C@H]1C(=O)N2CCC[C@H]2[C@]2(O)O[C@](NC(=O)[C@@H]3C[C@@H]4c5cccc6[nH]cc(c56)C[C@H]4N(C)C3)(C(C)C)C(=O)N12` [alpha-dihydroergocryptine], the “effectiveness in RLS” value [1] is listed as “effective”.

For `C=CCN1C[C@H](C(=O)N(CCCN(C)C)C(=O)NCC)C[C@@H]2c3cccc4[nH]cc(c34)C[C@H]21` [cabergoline], the “effectiveness in RLS” value [1] is listed as “effective”.

For `Clc1cccc(Cl)c1NC1=NCCN1` [clonidine, 2-(2,6-dichloroanilino)-4,5-dihydroimidazole], the compulsive movements (patients with RLS; [2]) was “improved”, the paresthesia felt (patients with RLS; [2]) was “hardly any” and the “quality of sleep and number of times they woke during the night” value (patients with RLS; [2]) was “not changed”. The side effects (patients with RLS; [3]) was “dry mouth, dizziness and constipation”, the “perceived symptoms such as paresthesia, compulsive movement and tiredness during the day” value ([1]; daily doses 0.1-0.9 mg, 4 open trials, 2 double-blind placebo-controlled trials, a single case study) was “(statistically significant) reduction” and the “sleep latency (polysomnographic)” value ([1]; daily doses 0.1-0.9 mg) was “shortened”. For the same compound, the “quality of sleep, frequency of waking or periodic leg movements in sleep (PLMS)” value ([1]; daily doses 0.1-0.9 mg, polysomnographic) was “not affected”.

For `CCN(CC)C(=O)N[C@H]1C=C2c3cccc4[nH]cc(c34)C[C@H]2N(C)C1` [lisuride], the “effectiveness in RLS” value [1] is listed as “effective”.

For `CCCN1C[C@H](CSC)C[C@@H]2c3cccc4[nH]cc(c34)C[C@H]21` [pergolide], the side effects (patients with RLS; [3]) is given as “nausea, gastrointestinal problems and dizziness” and the “effectiveness in RLS” value [1] is given as “effective”.

For `CCCN[C@H]1CCc2nc(N)sc2C1` [pramipexole, (S)-2-amino-6-n-propylamino-4,5,6,7-tetrahydro-benzothiazole], the “RLS symptoms (discomfort, cramps and pains in the legs, compulsive movement, sleep problems, daytime tiredness)” value (patients with RLS; [3]) is given as “certainly improved”, the “difference from earlier therapy” value (patients with RLS; pramipexole 0.36 mg (male) / 0.27 mg (female) daily, two hours before bedtime) is given as “did not report any difference” and the “effectiveness in RLS” value [1] is given as “effective”.

In the case of `CCCN(CCC)CCc1cccc2c1CC(=O)N2` [ropinirol], the “effectiveness in RLS” value [1] is given as “effective”.

In the case of bromocryptine, the “effectiveness in RLS” value [1] is listed as “effective”.
